Earlier results as cited in patent US9302241B2, “Method of preparing lipid nanoparticles” (UNIVERSITE D'ANGERS, priority 2008, dated 2016).

Details: concentration of Fondaparinux in its brand form Arixtra

## Fondaparinux
  solubility in water: greater than 12.5 mg/ml
